The structures appear in SMILES notation. Where a name gives a salt, the structure may show the parent alone. A value given as a limit tells only on which side of the number the result lay.

For orientation: IC50 means the point on the concentration scale where inhibition reaches its midpoint.

T1 sequence (Q96P20 whole entry): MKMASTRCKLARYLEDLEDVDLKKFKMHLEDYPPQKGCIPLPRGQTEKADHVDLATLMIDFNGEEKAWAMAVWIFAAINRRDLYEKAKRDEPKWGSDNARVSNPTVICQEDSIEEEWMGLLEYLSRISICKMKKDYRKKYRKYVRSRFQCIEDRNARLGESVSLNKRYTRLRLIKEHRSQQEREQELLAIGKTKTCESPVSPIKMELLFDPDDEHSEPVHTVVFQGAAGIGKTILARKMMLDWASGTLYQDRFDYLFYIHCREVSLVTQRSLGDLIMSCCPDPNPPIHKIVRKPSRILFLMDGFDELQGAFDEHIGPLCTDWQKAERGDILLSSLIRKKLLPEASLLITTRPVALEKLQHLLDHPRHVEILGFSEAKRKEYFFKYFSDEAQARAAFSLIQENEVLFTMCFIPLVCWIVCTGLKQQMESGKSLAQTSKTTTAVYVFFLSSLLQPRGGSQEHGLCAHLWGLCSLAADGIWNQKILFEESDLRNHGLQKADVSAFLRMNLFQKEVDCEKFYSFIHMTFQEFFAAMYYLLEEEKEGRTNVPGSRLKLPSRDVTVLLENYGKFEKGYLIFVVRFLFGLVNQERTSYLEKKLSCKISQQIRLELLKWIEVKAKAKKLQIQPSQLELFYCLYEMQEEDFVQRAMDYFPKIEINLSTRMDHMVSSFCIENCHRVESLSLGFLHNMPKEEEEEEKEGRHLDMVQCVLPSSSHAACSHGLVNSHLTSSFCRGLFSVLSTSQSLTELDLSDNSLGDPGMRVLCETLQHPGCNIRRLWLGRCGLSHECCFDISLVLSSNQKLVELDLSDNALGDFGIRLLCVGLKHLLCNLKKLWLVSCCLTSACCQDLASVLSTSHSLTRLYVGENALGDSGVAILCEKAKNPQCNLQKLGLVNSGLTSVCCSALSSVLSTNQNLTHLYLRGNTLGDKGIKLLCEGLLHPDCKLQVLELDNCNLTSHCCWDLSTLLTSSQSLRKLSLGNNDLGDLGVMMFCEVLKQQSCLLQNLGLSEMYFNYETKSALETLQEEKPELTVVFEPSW

The test concerns the target T1, NLRP3 (Homo sapiens, UniProt Q96P20).
T1 construct: Seed THP-1 cells (25,000 cells/well) containing 1.0 μg/ml LPS in 40 μl of RPMI medium; host or cells: THP-1 cells
The test is described as follows: THP-1 cells pyroptosis assay (LPS-primed, nigericin-triggered, resazurin read-out). The format is cell-based. Conditions: 1 μg/ml LPS, compound 3 hrs, nigericin 5 μM 1 hr, resazurin viability. As to the method:
THP-1 cells (ATCC #TIB-202) were grown in RPMI containing L-glutamine (Gibco #11835) supplemented with 1 mM sodium pyruvate (Sigma #S8636) and penicillin (100 units/ml)/streptomycin (0.1 mg/ml) (Sigma #P4333) in 10% Fetal Bovine Serum (FBS) (Sigma #F0804). The cells were routinely passaged and grown to confluency (˜10^6 cells/ml). On the day of the experiment, THP-1 cells were harvested and resuspended into RPMI medium (without FBS). The cells were then counted and viability (>90%) checked by Trypan blue (Sigma #T8154). Appropriate dilutions were made to give a concentration of 625,000 cells/ml. To this diluted cell solution was added LPS (Sigma #L4524) to give a 1 μg/ml Final Assay Concentration (FAC). 40 μl of the final preparation was aliquoted into each well of a 96-well plate. The plate thus prepared was used for compound screening. The following method step-by-step assay was followed for compound screening. • 1. Seed THP-1 cells (25,000 cells/well) containing 1.0 μg/ml LPS in 40 μl of RPMI medium (without FBS) in 96-well, black walled, clear bottom cell culture plates coated with poly-D-lysine (VWR #734-0317) • 2. Add 5 μl compound (8 points half-log dilution, with 10 μM top dose) or vehicle (DMSO 0.1% FAC) to the appropriate wells • 3. Incubate for 3 hrs at 37° C., 5% CO2 • 4. Add 5 μl nigericin (Sigma #N7143) (FAC 5 μM) to all wells • 5. Incubate for 1 hr at 37° C., 5% CO2 • 6. At the end of the incubation period, spin plates at 300×g for 3 mins and remove supernatant • 7. Then add 50 μl of resazurin (Sigma #R7017) (FAC 100 μM resazurin in RPMI medium without FBS) and incubate plates for a further 1-2 hrs at 37° C. and 5% CO2 • 8. Plates were read in an Envision reader at Ex 560 nm and Em 590 nm • 9. IC50 data is fitted to a non-linear regression equation (log inhibitor vs response-variable slope 4-parameters) The results of the pyroptosis assay are summarised in Table 1 below as THP IC50.
A general note: The colour change of resazurin is a common sign of viable cells or microbes.
For `COc1cc(-c2cc(F)cc(C(C)C)c2CC(=O)NS(=O)(=O)c2ccc(=O)n(C)c2)ccn1` [Example 1, 2-(4-Fluoro-2-isopropyl-6-(2-methoxypyridin-4-yl)phenyl)-N-((1-methyl-6-oxo-,6-dihydropyridin-3-yl)sulfonyl)acetamide, potassium salt], the IC50 was in the range of 5 to 10 µM.

For the molecule `COc1cc(-c2cc(F)cc(C(C)C)c2CC(=O)NS(=O)(=O)c2ccc(=O)n(C(C)C)c2)ccn1` [Example 2, 2-(4-Fluoro-2-isopropyl-6-(2-methoxypyridin-4-yl)phenyl)-N-((1-isopropyl-6-oxo-1,6-dihydropyridin-3-yl)sulfonyl)acetamide, potassium salt], the IC50 was 1 to 5 µM.

For `COc1cc(-c2cc(F)cc(C(C)C)c2CC(=O)NS(=O)(=O)c2cn(C)c(=O)n(C)c2=O)ccn1` [Example 3, N-((1,3-Dimethyl-2,4-dioxo-1,2,3,4-tetrahydropyrimidin-5-yl)sulfonyl)-2-(4-fluoro-2-isopropyl-6-(2-methoxypyridin-4-yl)phenyl) acetamide], the 50% inhibitory concentration (IC50) is at most 1 µM.

For the origin of these results see patent US20200399242A1, “NOVEL COMPOUNDS” (INFLAZOME LIMITED, priority 2018, published 2020).
